# In article PMC11477621, “Design, Synthesis, and Biological Evaluation of HDAC Inhibitors Containing Natural Product-Inspired N-Linked 2-Acetylpyrrole Cap” (Molecules, 2024):
# Legend:
# [1] = tested on: HCT-116 (human colon cancer cell line); assay: CCK8 cell viability assay, HCT-116; format: cell-based; settings: 72 h, read-out: Proliferation inhibition IC50 ± SD, HCT-116
# Experimental: (§1) The CCK8 (#AC11L054, Life ilab, Shanghai, China) method was used to detect the cells’ proliferation. Cells were seeded into a 96-well culture plate at an appropriate density. […] IC50 values were estimated using the four-parameter method. Each set of experiments was repeated independently three times with three replicate wells per concentration each time.
# HDAC3 = HDAC3 (Homo sapiens, UniProt O15379); assay: HDAC inhibition assay (HTRF), HDAC3;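 note: HTRF detection with streptavidin-XL665 and a Eu cryptate-labelled antibody against unmodified H3K9, two independent runs with duplicate wells at each concentration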
# Experimental: (§3) Then, SA-XL665 (#610SAXLG, Cisbio, Bedford, MA, USA) and anti-H3K9me0-Eu(K) (#61KB0KAD, Cisbio, USA) were added. […] The IC50 value of the compounds was calculated using GraphPad 7.0 software. Each set of experiments was independently repeated twice, with two replicate wells per concentration each time.
# [2] = tested on: RPMI-8226 (human myeloma cell line); assay: CCK8 cell viability assay, RPMI-8226; format: cell-based; settings: 72 h, read-out: Proliferation inhibition IC50 ± SD, RPMI-8226
# Experimental: as §1
# [3] = tested on: HL-60 (human leukemia cell line); assay: CCK8 cell viability assay, HL-60; format: cell-based; settings: 72 h, read-out: Proliferation inhibition IC50 ± SD, HL-60
# Experimental: as §1
# HDAC1 = molecular target: T1, HDAC1 (Homo sapiens, UniProt Q13547); assay: HDAC inhibition assay (HTRF), HDAC1; format: biochemical; settings: read-out: IC50 ± SD, HDAC1;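 note: HTRF detection with streptavidin-XL665 plus Eu(K)-labelled anti-H3K9me0 antibody, two independent runs with duplicate wells per concentration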
# T1 construct: purchased BPS #50001
# Experimental: as §3
# HDAC6 = molecular target: T2, HDAC6 (Homo sapiens, UniProt Q9UBN7); assay: HDAC inhibition assay (HTRF), HDAC6; format: biochemical; settings: read-out: IC50 ± SD, HDAC6
# T2 construct: purchased BPS #50006
# T2 sequence (Q9UBN7 1-1215): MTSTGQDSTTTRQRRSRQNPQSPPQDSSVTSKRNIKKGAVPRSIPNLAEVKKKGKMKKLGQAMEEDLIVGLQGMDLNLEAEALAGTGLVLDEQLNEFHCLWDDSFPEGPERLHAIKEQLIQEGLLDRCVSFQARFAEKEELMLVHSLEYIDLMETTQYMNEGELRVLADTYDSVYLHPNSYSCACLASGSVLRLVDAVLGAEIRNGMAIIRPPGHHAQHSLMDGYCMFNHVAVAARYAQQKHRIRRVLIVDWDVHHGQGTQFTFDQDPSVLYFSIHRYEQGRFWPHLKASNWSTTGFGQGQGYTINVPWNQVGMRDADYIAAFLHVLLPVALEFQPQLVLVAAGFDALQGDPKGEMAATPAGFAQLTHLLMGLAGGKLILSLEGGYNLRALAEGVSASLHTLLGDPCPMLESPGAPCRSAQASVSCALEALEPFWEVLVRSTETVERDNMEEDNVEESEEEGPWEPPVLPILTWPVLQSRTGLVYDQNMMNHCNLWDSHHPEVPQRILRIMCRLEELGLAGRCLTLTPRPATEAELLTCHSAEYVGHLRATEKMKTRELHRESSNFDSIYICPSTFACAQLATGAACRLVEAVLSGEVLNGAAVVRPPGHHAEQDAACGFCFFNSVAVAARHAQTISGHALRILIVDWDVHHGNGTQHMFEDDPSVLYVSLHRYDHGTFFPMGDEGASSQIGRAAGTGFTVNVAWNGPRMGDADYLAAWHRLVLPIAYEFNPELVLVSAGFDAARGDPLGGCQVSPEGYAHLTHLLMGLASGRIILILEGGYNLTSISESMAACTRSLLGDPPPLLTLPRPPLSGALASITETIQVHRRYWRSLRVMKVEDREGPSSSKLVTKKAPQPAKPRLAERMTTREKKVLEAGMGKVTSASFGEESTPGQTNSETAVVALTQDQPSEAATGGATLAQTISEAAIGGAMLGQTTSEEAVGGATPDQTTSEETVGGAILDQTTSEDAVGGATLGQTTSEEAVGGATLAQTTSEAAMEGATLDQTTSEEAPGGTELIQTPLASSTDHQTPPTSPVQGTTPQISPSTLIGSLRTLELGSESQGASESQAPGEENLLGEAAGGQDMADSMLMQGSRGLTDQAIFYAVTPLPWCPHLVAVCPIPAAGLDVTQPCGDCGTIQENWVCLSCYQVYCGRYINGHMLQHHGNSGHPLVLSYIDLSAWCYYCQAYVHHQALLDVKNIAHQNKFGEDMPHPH
# Experimental: as §3
# RPMI-8226 cells = assay: Apoptosis assay, Annexin V-FITC/PI flow cytometry; format: cell-based, human; settings: 1, 3 and 10 μM, 48 h
# Source text: Annexin V-FITC and PI double-staining detection kits were used to determine apoptotic cells. […] Data results were obtained from three independent experiments.
# [4] = tested on: Ac-histone H3 in RPMI-8226 cells; assay: Western blot of Ac-histone H3; format: cell-based, human; settings: 24 h; for Histone H3 acetylation level: 10 μM
# Experimental: (§2) RPMI-8226 cells were seeded in six-well plates and treated with compounds for 24 h. Cells were lysed with 1× SDS loading buffer (50 mM Tris pH 6.8, 100 mM DTT, 2% SDS, 0.1% bromophenol blue, 10% glycerol), and then centrifuged at 12,000 rpm for 5 min at 4 °C. Cell extracts were probed with antibodies Ac-Tubulin (#5335T, CST, Kansas City, MO, USA), α-Tubulin (#2144S, CST, Kansas City, MO, USA), AcH3 (#ab39139, active motif, Carlsbad, CA, USA), Histone H3 (#17168-1-AP, Proteintech, Chicago, IL, USA), GAPDH (#60004-1-1g, Proteintech, Chicago, IL, USA), Goat Anti-Mouse IgG, H&L Chain Specific Peroxidase Conjugate (#401215, Calbiochem, Darmstadt, Germany), Goat Anti-Rabbit IgG, or H&L Chain Specific Peroxidase Conjugate (#401353, Calbiochem, Germany), then detected using Bio-RAD power pal Basic (#041BR66615, BioRad Laboratories, Hercules, CA, USA), Bio-RAD Mini-PROTEAN Tetrade System (#IEC/EN 61010-1, BioRad Laboratories, Hercules, CA, USA), or Bio-RAD Chemi Touch Imagin (BioRad Laboratories, Hercules, CA, USA).
# [5] = tested on: Ac-tubulin in RPMI-8226 cells; assay: Western blot of Ac-tubulin; format: cell-based, human; settings: 24 h; for Ac-α-tubulin protein expression: tested concentrations
# Experimental: as §2
# [6] = Pharmacokinetic study in male ICR mice; format: in vivo; settings: mouse, plasma
# Experimental: Specific procedures were referred to the reported method. ICR mice (n = 6) were fasted for 12 h before administration and remained fasting for 2 h. The animal room environment was controlled (target conditions: temperature 18 to 29 °C, relative humidity 30 to 70%). Temperature and relative humidity were monitored daily. An electronic time-controlled lighting system was used to provide a 12 h light/12 h dark cycle. Compound 20 was administered at doses of 5 mg/kg (po) and 1 mg/kg (iv). The time points for blood sample collection were 0.25, 0.50, 1.00, 2.00, 4.00, 8.00, and 24 h post dose for the po-administrated group, and the time points were 0.05, 0.25, 0.75, 2.00, 4.00, 8.00, and 24 h for the iv group. For each point, 20 μL of plasma were transferred into a clean tube, 200 μL of MeOH/ACN (50/50, v/v) containing IS were added, and they were thoroughly vortexed by a vortex mixer for 1 min. The mixture was centrifuged at 15000 rpm for 5 min, and then 20 μL of supernatant was mixed with 20 μL of water for the analysis by LC-MS.
# [7] = ref [46],[47]; cited from earlier work
# Sequence of HDAC3 (O15379 whole entry): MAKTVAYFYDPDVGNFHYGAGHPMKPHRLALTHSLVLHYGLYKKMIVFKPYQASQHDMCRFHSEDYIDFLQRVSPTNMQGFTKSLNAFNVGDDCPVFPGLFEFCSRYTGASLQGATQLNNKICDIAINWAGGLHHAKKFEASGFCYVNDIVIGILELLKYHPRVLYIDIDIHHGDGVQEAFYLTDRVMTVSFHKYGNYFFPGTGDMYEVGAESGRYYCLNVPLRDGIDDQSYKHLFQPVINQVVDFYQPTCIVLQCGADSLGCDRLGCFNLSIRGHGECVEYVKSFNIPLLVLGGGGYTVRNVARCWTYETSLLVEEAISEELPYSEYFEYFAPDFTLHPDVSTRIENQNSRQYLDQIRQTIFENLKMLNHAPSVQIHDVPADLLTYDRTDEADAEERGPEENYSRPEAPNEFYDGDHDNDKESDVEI
# Sequence of HDAC3 (Q9Y618 395-489 partner limits assumed): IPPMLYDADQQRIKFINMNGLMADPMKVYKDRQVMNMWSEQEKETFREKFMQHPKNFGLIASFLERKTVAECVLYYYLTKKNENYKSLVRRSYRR
# T1 sequence (Q13547 whole entry): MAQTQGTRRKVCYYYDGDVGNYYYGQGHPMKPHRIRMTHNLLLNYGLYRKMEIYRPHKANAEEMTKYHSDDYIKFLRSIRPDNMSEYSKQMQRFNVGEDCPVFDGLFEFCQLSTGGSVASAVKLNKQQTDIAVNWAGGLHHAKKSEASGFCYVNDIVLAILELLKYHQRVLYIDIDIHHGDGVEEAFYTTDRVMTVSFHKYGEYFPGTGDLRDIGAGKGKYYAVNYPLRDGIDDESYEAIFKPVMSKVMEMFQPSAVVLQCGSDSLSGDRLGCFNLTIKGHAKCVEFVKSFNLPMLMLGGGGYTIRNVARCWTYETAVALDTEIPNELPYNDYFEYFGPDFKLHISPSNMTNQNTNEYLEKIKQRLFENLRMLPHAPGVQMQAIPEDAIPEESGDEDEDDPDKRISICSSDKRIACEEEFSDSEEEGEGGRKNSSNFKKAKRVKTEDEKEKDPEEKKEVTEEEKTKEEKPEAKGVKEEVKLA
IC50 [1],IC50 (HDAC3),IC50 [2],IC50 [3],IC50 (HDAC1),IC50 (HDAC6),SMILES,Promotion of RPMI-8226 cell apoptosis (RPMI-8226 cells),Histone H3 acetylation level [4],Ac-α-tubulin protein expression [5],F% (oral bioavailability) [7],other results
12.3 ± 2.2 µM,0.0266 ± 0.0019 µM,11.9 ± 1.58 µM,8.56 ± 1.47 µM,0.0368 ± 0.00587 µM,0.00422 ± 0.0001 µM,"O=C(CCCCCCn1cccc1C(=O)C(F)(F)F)NO [Compound 5c, N-hydroxy-7-(2-(2,2,2-trifluoroacetyl)-1H-pyrrol-1-yl)heptanamide]",promote RPMI-8226 cell apoptosis in a dose-dependent manner,,,,
13.2 ± 2.48 µM,1.39 ± 0.373 µM,10 ± 0.52 µM,8.32 ± 0.37 µM,1.1 ± 0.144 µM,> 10 µM,"CC(=O)c1cccn1Cc1cn(CCc2ccc(C(=O)Nc3ccccc3N)cc2)nn1 [Compound 19a, 4-(2-(4-((2-Acetyl-1H-pyrrol-1-yl)methyl)-1H-1,2,3-triazol-1-yl)ethyl)-N-(2-aminophenyl)benzamide]",promote RPMI-8226 cell apoptosis in a dose-dependent manner,increased histone H3 acetylation levels comparable to MS-275,no discernible effect,,

# The remaining lines, values behind:
SMILES,IC50 [1],IC50 (HDAC3),IC50 [2],IC50 [3],IC50 (HDAC1),IC50 (HDAC6),Promotion of RPMI-8226 cell apoptosis (RPMI-8226 cells),Histone H3 acetylation level [4],Ac-α-tubulin protein expression [5],F% (oral bioavailability) [7],other results
"CC(=O)c1cccn1Cc1ccc(/C=C/C(=O)NO)cc1 [Compound 14, (E)-3-(4-((2-acetyl-1H-pyrrol-1-yl)methyl)phenyl)-N-hydroxyacrylamide]",8.63 ± 0.82 µM,0.457 ± 0.173 µM,8.85 ± 2.3 µM,8.16 ± 1.96 µM,0.8 ± 0.0504 µM,0.0337 ± 0.0148 µM,promote RPMI-8226 cell apoptosis in a dose-dependent manner,,,,Acetylated histone H3 compared to compound 5c ([4]; same concentration): induced more acetylated tubulin and acetylated histone H3; Acetylated tubulin compared to compound 5c ([5]; same concentration): induced more acetylated tubulin
"CC(=O)c1cccn1CCc1ccc(C(=O)Nc2ccccc2N)cc1 [Compound 20, 4-(2-(2-Acetyl-1H-pyrrol-1-yl)ethyl)-N-(2-aminophenyl)benzamide]",9.08 ± 0.58 µM,1.08 ± 0.229 µM,2.89 ± 0.43 µM,4.71 ± 0.24 µM,0.441 ± 0.0782 µM,> 10 µM,promote RPMI-8226 cell apoptosis in a dose-dependent manner,increased histone H3 acetylation levels comparable to MS-275,no discernible effect,,"AUC(0-inf) ([6]; iv, 1 mg/kg): 163 ± 3 ng·h/mL; AUC(0-t) ([6]; iv, 1 mg/kg): 163 ± 3 ng·h/mL; MRT inf ([6]; iv, 1 mg/kg): 10.9 ± 0.36 min; clearance ([6]; iv, 1 mg/kg): 102 ± 2 mL/min/kg; half-life ([6]; iv, 1 mg/kg): 11.5 ± 0.72 min; Vd ([6]; iv, 1 mg/kg, read-out: Vss): 1.11 ± 0.052 L/kg; AUC(0-inf) ([6]; po, 5 mg/kg): 47.2 ± 26.6 ng·h/mL; AUC(0-t) ([6]; po, 5 mg/kg): 40.7 ± 21.8 ng·h/mL; Cmax ([6]; po, 5 mg/kg): 48.3 ± 31.1 ng/mL; MRT inf ([6]; po, 5 mg/kg): 110 ± 25.2 min; Tmax ([6]; po, 5 mg/kg): 20 ± 8.64 min; half-life ([6]; po, 5 mg/kg): 93 ± 30.6 min; bioavailability ([6]; po, 5 mg/kg, read-out: F (oral bioavailability)): 5%"
"O=C(CCCCCCC(=O)Nc1ccccc1)NO [SAHA, vorinostat]",,,,,,,,,,8.33%,
Cc1[nH]c2ccccc2c1CCNCc1ccc(/C=C/C(=O)NO)cc1 [panobinostat],,,,,,,,,,4.62%,
